Measured values as given in PubChem BioAssay (NCI).
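The compound was tested at five concentrations on cells cultured in 96-well plates, with a 48-hour exposure period. GI50 = concentration required for 50% inhibition of growth. Definition used: TGI = concentration required for complete inhibition of growth.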

How the values were obtained:
Test in all cases: DTP human tumour cell line panel, 48 h
NCI-H460 lung = system: NCI-H460 lung
NCI/ADR-RES ovarian = system: NCI/ADR-RES ovarian
MDA-MB-435 = system: MDA-MB-435
UACC-62 melanoma = system: UACC-62 melanoma
NCI-H23 lung = system: NCI-H23 lung
786-0 renal = system: 786-0 renal
SK-OV-3 ovarian = system: SK-OV-3 ovarian
SNB-75 CNS = system: SNB-75 CNS
UO-31 renal = system: UO-31 renal
U251 CNS = system: U251 CNS
A498 renal = system: A498 renal
MOLT-4 leukemia = system: MOLT-4 leukemia
LOX IMVI melanoma = system: LOX IMVI melanoma
HS 578T breast = system: HS 578T breast
SK-MEL-28 melanoma = system: SK-MEL-28 melanoma
DU-145 prostate = system: DU-145 prostate
OVCAR-8 ovarian = system: OVCAR-8 ovarian
NCI-H522 lung = system: NCI-H522 lung
SF-268 CNS = system: SF-268 CNS
CAKI-1 renal = system: CAKI-1 renal
MDA-MB-231 breast = system: MDA-MB-231 breast
SF-539 CNS = system: SF-539 CNS
T-47D breast = system: T-47D breast
SR leukemia = system: SR leukemia
KM12 colon = system: KM12 colon
SN12C renal = system: SN12C renal
A549 NSCLC = system: A549 NSCLC
PC-3 prostate = system: PC-3 prostate
MALME-3M melanoma = system: MALME-3M melanoma
HOP-62 NSCLC = system: HOP-62 NSCLC
HCT-116 colon = system: HCT-116 colon
COLO 205 colon = system: COLO 205 colon
ACHN renal = system: ACHN renal
M14 melanoma = system: M14 melanoma
MCF7 breast = system: MCF7 breast
SK-MEL-2 melanoma = system: SK-MEL-2 melanoma
RXF 393 renal = system: RXF 393 renal
CCRF-CEM leukemia = system: CCRF-CEM leukemia
TK-10 renal = system: TK-10 renal
SK-MEL-5 melanoma = system: SK-MEL-5 melanoma
SF-295 CNS = system: SF-295 CNS
NCI-H226 lung = system: NCI-H226 lung
HCC-2998 colon = system: HCC-2998 colon
BT-549 breast = system: BT-549 breast
HOP-92 NSCLC = system: HOP-92 NSCLC
RPMI-8226 leukemia = system: RPMI-8226 leukemia
K-562 leukemia = system: K-562 leukemia
UACC-257 melanoma = system: UACC-257 melanoma
HT29 colon = system: HT29 colon
HCT-15 colon = system: HCT-15 colon
OVCAR-5 ovarian = system: OVCAR-5 ovarian
IGROV1 ovarian = system: IGROV1 ovarian
SW-620 colon = system: SW-620 colon
OVCAR-4 ovarian = system: OVCAR-4 ovarian
SNB-19 CNS = system: SNB-19 CNS

## C[C@]12CC[C@@H]3c4ccc(O)cc4CC[C@H]3[C@@H]1CC[C@@H]2NS(=O)(=O)c1cccc(Cl)c1
NCI-H460 lung
  GI50: 2.24 µM
  TGI: 5.02 µM
NCI/ADR-RES ovarian
  GI50: 2.39 µM
  TGI: 8.57 µM
MDA-MB-435
  GI50: 2.63 µM
  TGI: 8.7 µM
UACC-62 melanoma
  GI50: 1.86 µM
  TGI: 4.84 µM
NCI-H23 lung
  GI50: 2.72 µM
  TGI: 10.8 µM
786-0 renal
  GI50: 2.47 µM
  TGI: 6.13 µM
SK-OV-3 ovarian
  GI50: 3.79 µM
  TGI: 12.6 µM
SNB-75 CNS
  GI50: 2.25 µM
  TGI: 9.01 µM
UO-31 renal
  GI50: 2.01 µM
  TGI: 8.75 µM
U251 CNS
  GI50: 2.26 µM
  TGI: 5.48 µM
A498 renal
  GI50: 1.56 µM
  TGI: 5.19 µM
MOLT-4 leukemia
  GI50: 2.14 µM
  TGI: 8.97 µM
LOX IMVI melanoma
  GI50: 1.75 µM
  TGI: 3.4 µM
HS 578T breast
  GI50: 3.09 µM
  TGI: 13.1 µM
SK-MEL-28 melanoma
  GI50: 2.24 µM
  TGI: 5.93 µM
DU-145 prostate
  GI50: 4.17 µM
  TGI: 14.9 µM
OVCAR-8 ovarian
  GI50: 3.27 µM
  TGI: 13.3 µM
NCI-H522 lung
  GI50: 1.91 µM
  TGI: 7.15 µM
SF-268 CNS
  GI50: 3.23 µM
  TGI: 13.6 µM
CAKI-1 renal
  GI50: 2.97 µM
  TGI: 10.6 µM
MDA-MB-231 breast
  GI50: 2.44 µM
  TGI: 7.75 µM
SF-539 CNS
  GI50: 1.76 µM
  TGI: 3.45 µM
T-47D breast
  GI50: 3.49 µM
  TGI: 11.3 µM
SR leukemia
  GI50: 2.15 µM
  TGI: 6.6 µM
KM12 colon
  GI50: 1.96 µM
  TGI: 4.24 µM
SN12C renal
  GI50: 1.8 µM
  TGI: 3.8 µM
A549 NSCLC
  GI50: 3.22 µM
  TGI: 12.7 µM
PC-3 prostate
  GI50: 2.98 µM
  TGI: 11.9 µM
MALME-3M melanoma
  GI50: 2.36 µM
  TGI: 6.75 µM
HOP-62 NSCLC
  GI50: 4.46 µM
  TGI: 15.3 µM
HCT-116 colon
  GI50: 1.68 µM
  TGI: 3.11 µM
COLO 205 colon
  GI50: 1.81 µM
  TGI: 3.31 µM
ACHN renal
  GI50: 2.58 µM
  TGI: 7.69 µM
M14 melanoma
  GI50: 2.34 µM
  TGI: 6.35 µM
MCF7 breast
  GI50: 2.92 µM
  TGI: 7.46 µM
SK-MEL-2 melanoma
  GI50: 2.46 µM
  TGI: 5.73 µM
RXF 393 renal
  GI50: 1.91 µM
  TGI: 4.9 µM
CCRF-CEM leukemia
  GI50: 2.94 µM
  TGI: 14.4 µM
TK-10 renal
  GI50: 3.46 µM
  TGI: 11.2 µM
SK-MEL-5 melanoma
  GI50: 1.72 µM
  TGI: 3.22 µM
SF-295 CNS
  GI50: 3.1 µM
  TGI: 10.8 µM
NCI-H226 lung
  GI50: 1.9 µM
  TGI: 4.61 µM
HCC-2998 colon
  GI50: 3.45 µM
  TGI: 10.4 µM
BT-549 breast
  GI50: 2.15 µM
  TGI: 5.25 µM
HOP-92 NSCLC
  GI50: 2.08 µM
  TGI: 5.69 µM
RPMI-8226 leukemia
  GI50: 2.97 µM
  TGI: 11.3 µM
K-562 leukemia
  GI50: 3.14 µM
  TGI: 11.8 µM
UACC-257 melanoma
  GI50: 2.9 µM
  TGI: 12.3 µM
HT29 colon
  GI50: 2.47 µM
  TGI: 6.06 µM
HCT-15 colon
  GI50: 2.28 µM
  TGI: 7.2 µM
OVCAR-5 ovarian
  GI50: 2.59 µM
  TGI: 8.54 µM
IGROV1 ovarian
  GI50: 4.23 µM
  TGI: 16.8 µM
SW-620 colon
  GI50: 3.91 µM
  TGI: 15 µM
OVCAR-4 ovarian
  GI50: 2.2 µM
  TGI: 10.5 µM
SNB-19 CNS
  GI50: 3.87 µM
  TGI: 14.4 µM
